Laboratory results reported in PubChem BioAssay (NCI).
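Where inhibition never reached the appropriate level, the endpoint shown equals the highest concentration tested. Otherwise, values were interpolated linearly from a five-concentration, 48-hour dose response in 96-well plates. TGI: total growth inhibition.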

Key:
Test in all cases: NCI tumour cell line growth inhibition, 48 h
A549 NSCLC = test system: A549 NSCLC
DMS 273 small cell lung = test system: DMS 273 small cell lung
HCC-2998 colon = test system: HCC-2998 colon
DLD-1 colon = test system: DLD-1 colon
MOLT-4 leukemia = test system: MOLT-4 leukemia
SW-620 colon = test system: SW-620 colon
HOP-62 NSCLC = test system: HOP-62 NSCLC
NCI-H460 lung = test system: NCI-H460 lung
MCF7 breast = test system: MCF7 breast
SNB-19 CNS = test system: SNB-19 CNS
KM12 colon = test system: KM12 colon
COLO 205 colon = test system: COLO 205 colon
HOP-92 NSCLC = test system: HOP-92 NSCLC
P388/ADR leukemia = test system: P388/ADR leukemia
UACC-62 melanoma = test system: UACC-62 melanoma
NCI/ADR-RES ovarian = test system: NCI/ADR-RES ovarian
SN12C renal = test system: SN12C renal
SNB-78 CNS = test system: SNB-78 CNS
SK-MEL-28 melanoma = test system: SK-MEL-28 melanoma
CAKI-1 renal = test system: CAKI-1 renal
NCI-H522 lung = test system: NCI-H522 lung
IGROV1 ovarian = test system: IGROV1 ovarian
HL-60(TB) leukemia = test system: HL-60(TB) leukemia
SF-268 CNS = test system: SF-268 CNS
OVCAR-3 ovarian = test system: OVCAR-3 ovarian
NCI-H23 lung = test system: NCI-H23 lung
DMS 114 small cell lung = test system: DMS 114 small cell lung
CCRF-CEM leukemia = test system: CCRF-CEM leukemia
HT29 colon = test system: HT29 colon
M19-MEL melanoma = test system: M19-MEL melanoma
EKVX NSCLC = test system: EKVX NSCLC
RXF 393 renal = test system: RXF 393 renal
U251 CNS = test system: U251 CNS
A498 renal = test system: A498 renal
HCT-116 colon = test system: HCT-116 colon
UO-31 renal = test system: UO-31 renal
UACC-257 melanoma = test system: UACC-257 melanoma
SN12K1 renal = test system: SN12K1 renal
HCT-15 colon = test system: HCT-15 colon
SK-OV-3 ovarian = test system: SK-OV-3 ovarian
OVCAR-5 ovarian = test system: OVCAR-5 ovarian
LOX IMVI melanoma = test system: LOX IMVI melanoma
P388 leukemia = test system: P388 leukemia
SNB-75 CNS = test system: SNB-75 CNS
SK-MEL-2 melanoma = test system: SK-MEL-2 melanoma
KM20L2 colon = test system: KM20L2 colon
OVCAR-8 ovarian = test system: OVCAR-8 ovarian
SF-539 CNS = test system: SF-539 CNS
SK-MEL-5 melanoma = test system: SK-MEL-5 melanoma
RPMI-8226 leukemia = test system: RPMI-8226 leukemia
MALME-3M melanoma = test system: MALME-3M melanoma
K-562 leukemia = test system: K-562 leukemia
SF-295 CNS = test system: SF-295 CNS
OVCAR-4 ovarian = test system: OVCAR-4 ovarian
HOP-18 NSCLC = test system: HOP-18 NSCLC

NC(=O)NN=C(CS)CS
TGI (A549 NSCLC): 40.7 µM
TGI (DMS 273 small cell lung): 45.1 µM
TGI (HCC-2998 colon): > 77.5 µM
TGI (DLD-1 colon): > 65.5 µM
TGI (MOLT-4 leukemia): 65.8 µM
TGI (SW-620 colon): 60 µM
TGI (HOP-62 NSCLC): 41.9 µM
TGI (NCI-H460 lung): 59 µM
TGI (MCF7 breast): > 69 µM
TGI (SNB-19 CNS): 52.3 µM
TGI (KM12 colon): > 100 µM
TGI (COLO 205 colon): 46.6 µM
TGI (HOP-92 NSCLC): 38.6 µM
TGI (P388/ADR leukemia): > 100 µM
TGI (UACC-62 melanoma): 72.5 µM
TGI (NCI/ADR-RES ovarian): 71.9 µM
TGI (SN12C renal): 55 µM
TGI (SNB-78 CNS): > 100 µM
TGI (SK-MEL-28 melanoma): 80.8 µM
TGI (CAKI-1 renal): 42.9 µM
TGI (NCI-H522 lung): 55.2 µM
TGI (IGROV1 ovarian): > 100 µM
TGI (HL-60(TB) leukemia): 2.52 µM
TGI (SF-268 CNS): > 79.9 µM
TGI (OVCAR-3 ovarian): 51.3 µM
TGI (NCI-H23 lung): 52.4 µM
TGI (DMS 114 small cell lung): 87.5 µM
TGI (CCRF-CEM leukemia): > 100 µM
TGI (HT29 colon): > 100 µM
TGI (M19-MEL melanoma): 37.1 µM
TGI (EKVX NSCLC): 33.7 µM
TGI (RXF 393 renal): > 74.4 µM
TGI (U251 CNS): 43.6 µM
TGI (A498 renal): 23.4 µM
TGI (HCT-116 colon): > 100 µM
TGI (UO-31 renal): 54.4 µM
TGI (UACC-257 melanoma): > 70.6 µM
TGI (SN12K1 renal): 41.6 µM
TGI (HCT-15 colon): 51.9 µM
TGI (SK-OV-3 ovarian): > 100 µM
TGI (OVCAR-5 ovarian): 55.7 µM
TGI (LOX IMVI melanoma): 40.3 µM
TGI (P388 leukemia): 47.4 µM
TGI (SNB-75 CNS): > 75.3 µM
TGI (SK-MEL-2 melanoma): 45.1 µM
TGI (KM20L2 colon): 36.4 µM
TGI (OVCAR-8 ovarian): 77.3 µM
TGI (SF-539 CNS): 40.7 µM
TGI (SK-MEL-5 melanoma): 32.8 µM
TGI (RPMI-8226 leukemia): > 100 µM
TGI (MALME-3M melanoma): 40 µM
TGI (K-562 leukemia): > 100 µM
TGI (SF-295 CNS): 49.5 µM
TGI (OVCAR-4 ovarian): > 100 µM
TGI (HOP-18 NSCLC): 66.4 µM
